Assay [1] concerns anti-VCP1 antibodies in RA and control sera. The settings on record: cited from earlier work.
Assay [2] deals with anti-CP IgG antibodies in RA patients' serum. The settings on record: 100 RA patients; IgG; cut-off 97.5th percentile of normal controls. As to the method: The ability to recognize specific antibodies in RA patients by MAP of formula (V), in comparison with the MAP of formula (VI) was evaluated by ELISA.
MAP of formula (V) and MAP of formula (VI) were diluted respectively to a concentration of 20 μg/ml and 5 μg/ml in PBS, loaded into the wells of a polystyrene micro-titration plate (50 μl/well), and left overnight at +4° C. Upon completion of the coating period, the wells were treated for 1 hour at RT with 3% BSA in PBS. The patients' serum samples (diluted 1:200 in a buffer constituted by 1% BSA, 0.05% Tween X-100 in PBS) were then loaded onto the plate (50 μl/well) and left to incubate for 3 hours at RT. After the incubation period, one washing was performed with 1% PBS Tween X-100 and two washings were performed with PBS (150 μl/well). An anti human-IgG antibody conjugated to the enzyme alkaline phosphatase (50 μl/well), diluted 1:3000 in 1% PBS BSA, 0.05% Tween X-100, was incubated for 3 hours at RT with stirring. Upon completion of the incubation, after three washings as described above, p-nitrophenyl phosphate was added to the wells and the absorbance at a wavelength of 405 nm was determined. The results of the test were expressed as the percentage of positivity, calculated by dividing the absorbance of each serum sample by the absorbance of a positive serum sample the value of which was set arbitrarily at 100.
Serum samples of 100 patients suffering from RA were tested by this method.

Assay [3] concerns autoantibodies in RA sera. Nature of the assay: 79 RA patients tested for anti-CCP2, anti-CCP3, anti-VCP1 and anti-VCP2 (FIG. 1). It is filed as binding, human. From the text: FIG. 1. […] The presence of different populations of autoantibodies is depicted in the block diagram. Number of RA sera positive (+) or negative (−) to anti-CCP2, anti-CCP3, anti-VCP1 [peptide of formula (VI)], and anti-VCP2 [peptide of formula (V)] are shown above the diagram.
Noteworthy, 7/79 (9%) anti-CCP2 and anti-CCP3 negative sera are positive to the peptide of formula (VI); 2/79 (3%) anti-CCP2 and anti-CCP3 negative sera are positive to peptide of formula (V); 1/79 (1%) anti-CCP2 and anti-CCP3 negative serum is positive to both peptides of formula (V) and formula (VI). Thus, formula (V) and (VI) allow to detect antibodies in a subgroup of anti-CCP negative RA patients (FIG. 1).

The test system of assay [4] is anti-SmD1 IgG antibodies. The settings on record: cited from earlier work.
Assay [5] deals with IgG antibodies in RA and NHS sera. Nature of the assay: ELISA with differently citrullinated EBNA-2(338-358) peptides (Example 6). It is filed as binding, human. To be noted: for NHS positive sera: 23 normal healthy subjects; for NHS positive sera / RA positive sera: positive = greater than 97.5th percentile of normal control group; for RA positive sera: 24 RA patients; for reactivity with RA sera (in words): 24 RA sera, relevant = more than 25% positive. The source says: The role of the number and of the position of citrullines inside EBNA-2(338-358) sequence in the detection of specific antibodies in RA sera was investigated by means of differently citrullinated peptides (Table 1).
It is believed that these two positions relate to two different antigenic regions.

The mark [6] stands for this setting: WO2004087747, MAP as coating antigen.

Read-outs that look alike come from different tables or passages of the source. Where no end group is shown, it is not given here. [ ]: non-standard residue; d: D form. Cit = NC(=O)NCCC[C@H](N)C(=O)O

Regarding “(G G D N H G Cit G Cit G Cit G Cit G Cit G G G Cit P G A P G)4 K2 K beta-Alanine [VCP1]”, the “anti-VCP1 antibodies found in RA sera” value in assay [1] (Anzilotti et al. 2006, 300 RA patients) is 45%. Also, in assay [1] (Anzilotti et al. 2006, 327 controls), the “anti-VCP1 antibodies found in controls” value is listed as “less than 5%”. Moreover, in assay [1] (Pratesi et al. 2006), the “antibodies detected in RA sera” value is reported as 50%; the “antibodies detected in normal and disease control sera” value is recorded as “less than 5%”. In assay [1] (setting [6]), the “antibodies detected in RA sera” value was 45% and the specificity is listed as 95%. For the same substance, in assay [2], the “anti-CP MAP antibodies found in the RA cohort” value is 47%. The “RA sera containing antibodies reacting with either one of the two MAP” value in assay [3] (comparison of MAP of formula (V) and MAP of formula (VI)) is listed as 15%. For the same substance, the “anti-CCP2 and anti-CCP3 negative sera positive to the peptide” value in assay [3] (of 79 RA patients) came out at 9%. For the same substance, the “anti-CCP2 and anti-CCP3 negative serum positive to both peptides” value in assay [3] (of 79 RA patients (1/79)) is recorded as 1%. Further, the “positive RA sera” value in assay [3] (population of 79 RA patients) is 62%.
As to “EBNA-2(354-373): non deiminated sequence EBNA2(354-373) of Incaprera et al.”, in assay [4] (Incaprera et al. 1998), the “IgG detection in IM and SLE sera” value was “detection of IgGs”. Further, the antibody recognition result in assay [4] (systemic lupus erythematosus autoimmunity) was “recognizes anti-SmD1 IgG antibodies”.
With “GQSCitGQSCitGRGCitGRGRGRGKG (GQS[Cit]GQS[Cit]GRG[Cit]GRGRGRGKG)”, in assay [5], the NHS positive sera is listed as 1/23, the RA positive sera is 12/24 and the “reactivity with RA sera (in words)” value was “most active peptide in this series”.
For “GQSCitGQSCitGRGRGRGRGRGKG (GQS[Cit]GQS[Cit]GRGRGRGRGRGKG) [[Cit^341, Cit^345]EBNA2(338-358)]”, in assay [5], the NHS positive sera is 0/23 and the RA positive sera is 12/24.
On the same counts, the results for “GQSCitGQSRGRGRGCitGRGRGKG (GQS[Cit]GQSRGRGRG[Cit]GRGRGKG; not fully specified) [[Cit^341, Cit^349]EBNA2(338-358)]” are 0/23 and 6/24.
For “GQSCitGQSRGRGRGRGRGCitGKG (GQS[Cit]GQSRGRGRGRGRG[Cit]GKG) [[Cit^341, Cit^355]EBNA2(338-358)]”, in that order: 1/23 and 8/24.
On the same counts, the results for “GQSCitGQSRGRGRGRGRGRGKG (GQS[Cit]GQSRGRGRGRGRGRGKG) [[Cit^341]EBNA2(338-358)]” are 1/23 and 4/24.
Regarding “GQSRGQSCitGCitGCitGRGRGRGKG (GQSRGQS[Cit]G[Cit]G[Cit]GRGRGRGKG) [[Cit345, Cit^347, Cit^349]EBNA2(338-358)]”, in assay [5], the NHS positive sera is given as 1/23 and the RA positive sera is reported as 9/24.
For “GQSRGQSCitGCitGRGRGRGRGKG (GQSRGQS[Cit]G[Cit]GRGRGRGRGKG) [[Cit^345, Cit^347]EBNA2(338-358)]”, in that order: 1/23 and 10/24.
For “GQSRGQSCitGRGCitGCitGRGRGKG (GQSRGQS[Cit]GRG[Cit]G[Cit]GRGRGKG)”, in that order: 1/23 and 8/24.
For “GQSRGQSCitGRGCitGRGCitGRGKG (GQSRGQS[Cit]GRG[Cit]GRG[Cit]GRGKG)”, in that order: 1/23 and 10/24.
“GQSRGQSCitGRGCitGRGRGCitGKG (GQSRGQS[Cit]GRG[Cit]GRGRG[Cit]GKG)”: in assay [5], the NHS positive sera is 0/23 and the RA positive sera was 8/24.
On to “GQSRGQSCitGRGCitGRGRGRGKG (GQSRGQS[Cit]GRG[Cit]GRGRGRGKG) [[Cit^345, Cit^349]EBNA2(338-358)]”, for which, in assay [5], the NHS positive sera is on record as 0/23; the RA positive sera was 15/24; the “reactivity with RA sera (in words)” value is “most active and selective di-citrullinated peptide”.
As for “GQSRGQSCitGRGRGCitGRGRGKG (GQSRGQS[Cit]GRGRG[Cit]GRGRGKG) [[Cit^345, Cit^351]EBNA2(338-358)]”, in assay [5], the NHS positive sera is 1/23 and the RA positive sera was 12/24.
On the same counts, the results for “GQSRGQSCitGRGRGRGCitGRGKG (GQSRGQS[Cit]GRGRGRG[Cit]GRGKG) [[Cit^345, Cit^353]EBNA2(338-358)]” are 2/23 and 6/24.
On the same counts, the results for “GQSRGQSCitGRGRGRGRGCitGKG (GQSRGQS[Cit]GRGRGRGRG[Cit]GKG) [[Cit^345, Cit^355]EBNA2(338-358)]” are 0/23 and 11/24.
For “GQSRGQSCitGRGRGRGRGRGKG (GQSRGQS[Cit]GRGRGRGRGRGKG) [[Cit^345]EBNA2(338-358)]”, in that order: 1/23 and 9/24.
Consider “GQSRGQSRGCitGRGCitGRGRGKG (GQSRGQSRG[Cit]GRG[Cit]GRGRGKG; not fully specified) [[Cit^347, Cit^349]EBNA2(338-358)]”, for which, in assay [5], the NHS positive sera is 1/23 and the RA positive sera was 5/24.
On the same counts, the results for “GQSRGQSRGCitGRGRGRGRGKG (GQSRGQSRG[Cit]GRGRGRGRGKG) [[Cit^347]EBNA2(338-358)]” are 1/23 and 6/24.
As for “GQSRGQSRGRGCitGCitGRGRGKG (GQSRGQSRGRG[Cit]G[Cit]GRGRGKG) [[Cit^349, Cit^351]EBNA2(338-358)]”, in assay [5], the NHS positive sera is given as 2/23, the RA positive sera is listed as 15/24 and the “reactivity with RA sera (in words)” value is “very active”. The “specificity and selectivity (in words)” value in assay [5] (RA versus NHS sera) is “less specific and selective”.
As to “GQSRGQSRGRGCitGRGRGRGKG (GQSRGQSRGRG[Cit]GRGRGRGKG) [[Cit^349]EBNA2(338-358)]”, in assay [5], the NHS positive sera is 1/23 and the RA positive sera is recorded as 9/24.
On the same counts, the results for “GQSRGQSRGRGRGCitGCitGRGKG (GQSRGQSRGRGRG[Cit]G[Cit]GRGKG; not fully specified) [[Cit^349, Cit^353]EBNA2(338-358)]” are 0/23 and 12/24.
For “GQSRGQSRGRGRGCitGRGCitGKG (GQSRGQSRGRGRG[Cit]GRG[Cit]GKG; not fully specified) [[Cit^349, Cit^355]EBNA2(338-358)]”, in that order: 0/23 and 9/24.
For “GQSRGQSRGRGRGCitGRGRGKG (GQSRGQSRGRGRG[Cit]GRGRGKG) [[Cit^351]EBNA2(338-358)]”, in that order: 1/23 and 6/24.
Consider “GQSRGQSRGRGRGRGCitGRGKG (GQSRGQSRGRGRGRG[Cit]GRGKG) [[Cit^353]EBNA2(338-358)]”, for which, in assay [5], the NHS positive sera is given as 0/23 and the RA positive sera is listed as 6/24.
Consider “GQSRGQSRGRGRGRGRGCitGKG (GQSRGQSRGRGRGRGRG[Cit]GKG) [[Cit^355]EBNA2(338-358)]”, for which, in assay [5], the NHS positive sera was 2/23 and the RA positive sera is recorded as 3/24.

(Values after patent US8900880B2, “Viral citrullinated peptides and uses thereof” (Toscana Biomarkers S.R.L., priority 2009, dated 2014).)
